Some results are limits rather than exact numbers.

The target in assay [1] is wild type PRC2 (wtPRC2) complex (Homo sapiens, UniProt Q15910). Kind of assay: EZH2 LC-MS Assay. The note with it: 40 nM wtPRC2 complex, 30 uM SAM, 1.5 uM H3K27me1 and 3 uM H3K27me3 peptides; SAH production. The assay is classed as biochemical. Here is the method:
Representative compounds of the invention were serially and separately diluted 3-fold in DMSO to obtain twelve concentrations. Then the test compounds at each concentration (120 nL of each) were transferred by Mosquito into a 384-well Perkin Elmer ProxiPlate 384 plus plates. Solutions (6 μL) of 80 nM wild type PRC2 (wtPRC2) complex and 60 µM SAM in reaction buffer (20 mM Tris, pH 8.0, 0.1% BSA, 0.01% Triton, 0.5 mM DTT) were added to the wells that were then incubated with the test compound for 20 min. A 6 μL solution of 3 µM of the substrate peptide H3K27me1 (histone H3 [21-44]-K27me1-biotin) and 6 μM regulatory peptide H3K27me3 (histone H3 [21-44]-K27me3) in reaction buffer was added to initiate each reaction. The final components in the reaction solution include 40 nM wtPRC2 complex, 30 µM SAM, 1.5 µM H3K27me1 and 3 µM H3K27me3 peptides with varying concentration of the compounds. A positive control consisted of the enzyme at 40 nM, 30 μM SAM, 1.5 µM H3K27me1 and 3 µM H3K27me3 in the absence of the test compound, and a negative control consisted of 30 µM SAM, 1.5 µM H3K27me1 and 3 μM H3K27me3 only. Each reaction was incubated at room temperature for 120 min, then stopped by addition of 3 μL per of quench solution (2.5% TFA with 320 nM d4-SAH). The reaction mixture was centrifuged (Eppendorf centrifuge 5810, Rotor A-4-62) for 2 min at 2000 rpm and read on an API 4000 triple quadrupole mass spec with Turbulon Spray (Applied Biosystem) coupled with Prominence UFLC (Shimadzu). The levels of SAH production were normalized based on the values coming from the positive and negative controls to give percent enzyme activities. The data were fit to a dose response equation using the program Helios to get the […] values of the test compound.

Assay [2] deals with H3K27 methylation in G401 cell. Kind of assay: ELISA (H3K27 methylation) assay. The assay is classed as cell-based. The note with it: cultured 48 h with compound, normalized using H3 signal. Here is the method: ELISA (H3K27 methylation) assay
Representative compounds of the invention were serially and separately diluted 3-fold in DO to obtain a total of eight or twelve concentrations. Then the compounds were added to G401 cell cultured in 384-well plate at 1:500 dilution to obtain the highest concentration of 20 μM. The cells were further cultured for 48 h before ELISA procedure.
Histone extraction: Cells, in 384-well plate, were washed with PBS (10 x PBS buffer (80 g NaCl (Sigma, S3014), 2 g KCl (Sigma, 60128), 14.4 g Na2HPO4 (Sigma, S5136), 2.4 g KH2PO4 (Sigma, P9791) to 1 L water, pH to 7.4) and lysed with the addition of lysis buffer (0.4N HCl; 45 μl per well). The plate was gently agitated at 4° C. for 30 min. The cell lysate was neutralized with neutralization buffer (0.5 M sodium phosphate dibasic, pH 12.5. 1 mM DTT; 36 µL per well). The plate was agitated to ensure the lysates were well mixed prior to the ELISA protocol.
ELISA protocol: Cell lysates were transferred to the wells of a 384-well plate and the final volume was adjusted to 50 μL per well with PBS. The plate was sealed, centrifuged at 2,000 rpm for 2 min and incubated at 4° C. for about 16 h. The plate was washed with TBST buffer (1 x TBS (10x TBS: 24.2 g Tris (Sigma, T6066), 80 g NaCl (Sigma, S3014) to 1 L of water and adjust pH to 7.6 with HCl) with 0.1% Tween-20). Blocking buffer (TBST, 5% BSA; 50 µL per well) was added and the plate was incubated for 1 h at rt. The blocking buffer was removed and primary antibody was added (30 μL per well). The following dilutions were performed with blocking buffer: for anti-H3K27me3 antibody (Cell Signaling Technology, #9733), dilution was 1:1000; for anti-H3K27me2 antibody (Cell Signaling Technology, #9288), dilution was 1:100; for anti-H3 antibody (Abcam, Cat #24834), dilution was 1:1000. The primary antibody was incubated in the plate at rt for 1 h. The wells were washed with TBST and incubated with secondary antibody for 1 h at rt. For secondary antibodies, the following dilutions were carried out with blocking buffer: anti-rabbit antibody (Jackson ImmunoResearch, #111-035-003), dilution was 1:2000; and anti-mouse antibody (Cell signaling technology, #7076), dilution was 1:1000.
After 1 h of incubation at rt, the wells were washed with TBST. ECL substrate (Pierce, #34080) was added at 30 μL per well and the plates were centrifuged at 2,000 rpm for 2 min. The signal was read using a PerkinElmer Envision Reader. The H3K27 methylation readouts were normalized using H3 signal and then percentage inhibition was calculated against the samples treated with DO. The data were fit to a dose response curve using the program Helios to get the IC50 values of the test compound.

Sequence of wild type PRC2 (wtPRC2) complex (Q15910 whole entry): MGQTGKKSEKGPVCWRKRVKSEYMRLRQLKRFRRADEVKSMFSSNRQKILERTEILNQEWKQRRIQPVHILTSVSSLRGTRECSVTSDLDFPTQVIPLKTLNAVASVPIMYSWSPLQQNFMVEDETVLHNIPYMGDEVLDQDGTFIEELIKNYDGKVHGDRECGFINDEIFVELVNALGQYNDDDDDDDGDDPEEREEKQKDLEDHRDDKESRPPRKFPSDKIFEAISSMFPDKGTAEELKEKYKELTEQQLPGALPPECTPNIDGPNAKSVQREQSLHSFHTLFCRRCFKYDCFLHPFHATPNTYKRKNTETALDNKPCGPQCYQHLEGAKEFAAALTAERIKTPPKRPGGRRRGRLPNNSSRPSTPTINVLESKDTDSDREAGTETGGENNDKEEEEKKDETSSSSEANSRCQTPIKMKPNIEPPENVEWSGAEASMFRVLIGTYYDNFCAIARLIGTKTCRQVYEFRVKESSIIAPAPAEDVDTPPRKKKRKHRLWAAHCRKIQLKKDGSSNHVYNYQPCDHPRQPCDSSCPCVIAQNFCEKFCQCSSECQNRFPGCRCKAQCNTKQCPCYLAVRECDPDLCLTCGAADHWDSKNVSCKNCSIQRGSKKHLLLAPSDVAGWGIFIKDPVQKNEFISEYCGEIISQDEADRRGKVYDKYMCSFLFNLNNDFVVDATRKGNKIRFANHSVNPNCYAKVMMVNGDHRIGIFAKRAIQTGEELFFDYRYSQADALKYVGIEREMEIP
Sequence of wild type PRC2 (wtPRC2) complex (O75530 whole entry partner): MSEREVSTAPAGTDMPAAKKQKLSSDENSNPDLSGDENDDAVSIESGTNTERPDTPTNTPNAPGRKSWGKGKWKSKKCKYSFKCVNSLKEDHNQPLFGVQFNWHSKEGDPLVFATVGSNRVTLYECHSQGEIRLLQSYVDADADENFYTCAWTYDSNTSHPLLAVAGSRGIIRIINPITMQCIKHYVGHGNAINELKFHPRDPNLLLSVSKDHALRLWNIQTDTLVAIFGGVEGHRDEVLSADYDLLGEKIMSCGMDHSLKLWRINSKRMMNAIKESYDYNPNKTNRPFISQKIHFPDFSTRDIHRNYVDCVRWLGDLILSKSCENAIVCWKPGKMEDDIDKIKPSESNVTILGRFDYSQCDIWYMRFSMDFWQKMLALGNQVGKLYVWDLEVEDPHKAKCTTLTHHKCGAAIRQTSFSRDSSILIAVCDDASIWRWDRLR
Sequence of wild type PRC2 (wtPRC2) complex (Q15022 whole entry partner): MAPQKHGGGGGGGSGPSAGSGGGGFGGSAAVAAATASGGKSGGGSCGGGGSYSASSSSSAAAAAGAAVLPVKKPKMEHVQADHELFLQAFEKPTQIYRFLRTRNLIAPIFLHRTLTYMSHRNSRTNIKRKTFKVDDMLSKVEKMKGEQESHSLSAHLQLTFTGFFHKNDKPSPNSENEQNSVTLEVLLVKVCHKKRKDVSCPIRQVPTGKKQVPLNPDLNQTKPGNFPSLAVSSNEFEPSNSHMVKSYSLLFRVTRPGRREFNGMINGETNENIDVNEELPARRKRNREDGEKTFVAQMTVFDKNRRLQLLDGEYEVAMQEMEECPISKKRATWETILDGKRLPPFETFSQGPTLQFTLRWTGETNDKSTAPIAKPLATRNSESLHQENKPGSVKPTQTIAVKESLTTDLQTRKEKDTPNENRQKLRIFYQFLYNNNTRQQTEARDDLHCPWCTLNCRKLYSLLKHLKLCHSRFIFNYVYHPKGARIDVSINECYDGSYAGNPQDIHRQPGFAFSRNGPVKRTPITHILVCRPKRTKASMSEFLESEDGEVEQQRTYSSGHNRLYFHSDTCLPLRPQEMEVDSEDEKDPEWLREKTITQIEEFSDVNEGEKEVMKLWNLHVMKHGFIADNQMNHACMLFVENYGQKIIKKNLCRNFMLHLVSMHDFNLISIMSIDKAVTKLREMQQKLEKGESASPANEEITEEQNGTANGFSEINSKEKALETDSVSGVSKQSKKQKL

With `Cc1ccc2ccc(N[C@H]3CC[C@H](CNc4ncc([C@@H](CO)C(=O)NC5COC5)cn4)CC3)nc2c1Cl` (single isomer, unassigned) [Example 7, (S)-2-(2-((((1r,4S)-4-((8-chloro-7-methylquinolin-2-yl)amino)cyclohexyl)methyl)amino)pyrimidin-5-yl)-3-hydroxy-N-(oxetan-3-yl)propanamide; or (R)-2-(2-((((1r,4R)-4-((8-chloro-7-methylquinolin-2-yl)amino)cyclohexyl)methyl)amino)pyrimidin-5-yl)-3-hydroxy-N-(oxetan-3-yl)propanamide], the IC50 in assay [1] lay in the range of 50 to 100 nM; in assay [2] (Homo sapiens, G-401, 48 h) it was 10 to 100 nM.

With `Cc1ccc2ccc(N[C@H]3CC[C@H](CNc4ncc([C@@H](CO)C(=O)NC5COC5)cn4)CC3)nc2c1Cl` (single isomer, unassigned) [Example 8, (S)-2-(2-((((1r,4S)-4-((8-chloro-7-methylquinolin-2-yl)amino)cyclohexyl)methyl)amino)pyrimidin-5-yl)-3-hydroxy-N-(oxetan-3-yl)propanamide; or (R)-2-(2-((((1r,4R)-4-((8-chloro-7-methylquinolin-2-yl)amino)cyclohexyl)methyl)amino)pyrimidin-5-yl)-3-hydroxy-N-(oxetan-3-yl)propanamide], the IC50 in assay [1] was less than 50 nM; in assay [2] it was less than 10 nM.

Take `Cc1ccc2ccc(N[C@H]3CC[C@H](CNc4ncc([C@H](O)C(=O)NC5COC5)cn4)CC3)nc2c1Cl` (single isomer, unassigned) [Example 10, (S)-2-(2-((((1r,4S)-4-((8-chloro-7-methylquinolin-2-yl)amino)cyclohexyl)methyl)amino)pyrimidin-5-yl)-2-hydroxy-N-(oxetan-3-yl)acetamide; or (R)-2-(2-((((1r,4R)-4-((8-chloro-7-methylquinolin-2-yl)amino)cyclohexyl)methyl)amino)pyrimidin-5-yl)-2-hydroxy-N-(oxetan-3-yl)acetamide]: the IC50 was 50 to 100 nM in assay [1] and 10 to 100 nM in assay [2] (Homo sapiens, G-401, 48 h).

On to `Cc1ccc2ccc(N[C@H]3CC[C@H](CNc4ncc([C@H](O)C(=O)NC5COC5)cn4)CC3)nc2c1Cl` (single isomer, unassigned) [Example 11, (S)-2-(2-((((1r,4S)-4-((8-chloro-7-methylquinolin-2-yl)amino)cyclohexyl)methyl)amino)pyrimidin-5-yl)-2-hydroxy-N-(oxetan-3-yl)acetamide; or (R)-2-(2-((((1r,4R)-4-((8-chloro-7-methylquinolin-2-yl)amino)cyclohexyl)methyl)amino)pyrimidin-5-yl)-2-hydroxy-N-(oxetan-3-yl)acetamide], for which the results for the IC50 in assay [1] and in assay [2] were less than 50 nM and less than 10 nM, respectively.

`Cc1ccc2ccc(N[C@H]3CC[C@H](CNc4ncc([C@H](C)C(=O)NC5COC5)cn4)CC3)nc2c1Cl` (single isomer, unassigned) [Example 13, (S)-2-(2-((((1r,4S)-4-((8-chloro-7-methylquinolin-2-yl)amino)cyclohexyl)methyl)amino)pyrimidin-5-yl)-N-(oxetan-3-yl)propanamide; or (R)-2-(2-((((1r,4R)-4-((8-chloro-7-methylquinolin-2-yl)amino)cyclohexyl)methyl)amino)pyrimidin-5-yl)-N-(oxetan-3-yl)propanamide]: the IC50 in assay [1] is less than 50 nM.

`Cc1ccc2ccc(N[C@H]3CC[C@H](CNc4ncc([C@H](C)C(=O)NC5COC5)cn4)CC3)nc2c1Cl` (single isomer, unassigned) [Example 14, (S)-2-(2-((((1r,4S)-4-((8-chloro-7-methylquinolin-2-yl)amino)cyclohexyl)methyl)amino)pyrimidin-5-yl)-N-(oxetan-3-yl)propanamide; or (R)-2-(2-((((1r,4R)-4-((8-chloro-7-methylquinolin-2-yl)amino)cyclohexyl)methyl)amino)pyrimidin-5-yl)-N-(oxetan-3-yl)propanamide]: the half-inhibitory concentration (IC50) in assay [1] is less than 50 nM.

Regarding `Cc1ccc2ccc(N[C@H]3CC[C@H](CNc4ncc(CC(=O)NC5COC5)cn4)CC3)nc2c1Cl` [Example 1, 2-(2-((((1R,4R)-4-((8-chloro-7-methylquinolin-2-yl)amino)cyclohexyl)methyl)amino)pyrimidin-5-yl)-N-(oxetan-3-yl)acetamide], the IC50 in assay [1] was less than 50 nM; in assay [2] (Homo sapiens, G-401, 48 h), less than 10 nM.

Turning to `Cc1ccc2ccc(N[C@H]3CC[C@H](CNc4ncc(CC(=O)N(C)C5COC5)cn4)CC3)nc2c1Cl` [Example 2, 2-(2-((((1r,4r)-4-((8-chloro-7-methylquinolin-2-yl)amino)cyclohexyl)methyl)amino)pyrimidin-5-yl)-N-methyl-N-(oxetan-3-yl)acetamide], the IC50 in assay [1] is less than 50 nM; in assay [2] (Homo sapiens, G-401, 48 h), less than 10 nM.

`Cc1ccc2ccc(N[C@H]3CC[C@H](CNc4ncc(C(F)(F)C(=O)NC5COC5)cn4)CC3)nc2c1Cl` [Example 3, 2-(2-((((1r,4r)-4-((8-chloro-7-methylquinolin-2-yl)amino)cyclohexyl)methyl)amino)pyrimidin-5-yl)-2,2-difluoro-N-(oxetan-3-yl)acetamide]: the IC50 in assay [1] is less than 50 nM; in assay [2] (Homo sapiens, G-401, 48 h) it was less than 10 nM.

`Cc1ccc2ccc(N[C@H]3CC[C@H](CNc4ncc(C(C)(O)C(=O)NC5COC5)cn4)CC3)nc2c1Cl` (stereo partly drawn) [Example 4, 2-(2-((((1r,4r)-4-((8-chloro-7-methylquinolin-2-yl)amino)cyclohexyl)methyl)amino)pyrimidin-5-yl)-2-hydroxy-N-(oxetan-3-yl)propanamide]: the IC50 was less than 50 nM in assay [1] and greater than 100 nM in assay [2] (Homo sapiens, G-401, 48 h).

Consider `Cc1ccc2ccc(N[C@H]3CC[C@H](CNc4ncc(C(C#N)C(=O)NC5COC5)cn4)CC3)nc2c1Cl` (stereo partly drawn) [Example 5, 2-(2-((((1r,4r)-4-((8-chloro-7-methylquinolin-2-yl)amino)cyclohexyl)methyl)amino)pyrimidin-5-yl)-2-cyano-N-(oxetan-3-yl)acetamide], for which the IC50 in assay [1] is less than 50 nM; in assay [2] (Homo sapiens, G-401, 48 h), less than 10 nM.

Regarding `Cc1ccc2ccc(N[C@H]3CC[C@H](CNc4ncc(C(CO)C(=O)NC5COC5)cn4)CC3)nc2c1Cl` (stereo partly drawn) [Example 6, 2-(2-((((1r,4r)-4-((8-chloro-7-methylquinolin-2-yl)amino)cyclohexyl)methyl)amino)pyrimidin-5-yl)-3-hydroxy-N-(oxetan-3-yl)propanamide], the IC50 in assay [1] was less than 50 nM; in assay [2] (Homo sapiens, G-401, 48 h) it was less than 10 nM.

Turning to `Cc1ccc2ccc(N[C@H]3CC[C@H](CNc4ncc(C(O)C(=O)NC5COC5)cn4)CC3)nc2c1Cl` (stereo partly drawn) [Example 9, 2-(2-((((1r,4r)-4-((8-chloro-7-methylquinolin-2-yl)amino)cyclohexyl)methyl)amino)pyrimidin-5-yl)-2-hydroxy-N-(oxetan-3-yl)acetamide], the concentration for half-maximal inhibition (IC50) was less than 50 nM in assay [1] and less than 10 nM in assay [2] (Homo sapiens, G-401, 48 h).

(Values after patent US12473273B2, “Quinoline compounds and compositions for inhibiting EZH2” (Novartis AG, priority 2020, dated 2025).)
